According to patent publication US7943600B2, “Antimicrobial combination therapy” (priority 2004, dated 2011):

Tests used:
Type in all cases: cell-based, E. coli
GM7330 fpg::amp = test: Survival curves after cisplatin treatment; conditions: presence or absence of ampicillin in growth medium
Procedure: (§1) MacConkey agar and LB broth were purchased from Difco. LB broth contained 10 g tryptone, 5 g yeast extract, and 10 g NaCl per 1 L. All antibiotics and cisplatin (cis-diammine-dichloro-platinum(II), or CDDP) were purchased from Sigma-Aldrich. Antibiotics were used at the following final concentrations: 15 μg/ml tetracycline (Tc), 100 μg/ml ampicillin, 50 μg/ml kanamycin, 100 μg/ml streptomycin, 30 μg/ml nalidixic acid and 20 μg/ml chloramphenicol. Cisplatin solutions were prepared by dissolution in phosphate buffered saline (PBS) at 37° C. for one hour with rotation, filtering the solution through a 0.2 μm Acrodisc filter, and determining the concentration by UV absorbance at A301 using a Beckmann DU-65 spectrophotometer. Appropriate doses of cisplatin were then prepared by dilution in PBS.
(§2) Cells were grown overnight from single colonies in LB broth. The next morning, saturated overnight cultures were diluted 1:100 and grown for two hours to mid-log phase (cell density approximately 3×10^8 cells/ml). At this time, the cells were spun down, resuspended in M9 minimal salts, and treated with various concentrations of cisplatin at 37° C. for 1 hour. Exposure to cisplatin was stopped by dilution of the cells 1:100 in M9 salts. Appropriate serial dilutions were prepared for each dose and plated on LB plates or LB/Tet plates. Colonies were counted the next day after incubation at 37° C. Survival was calculated as a percentage of cells forming colonies in treated populations relative to untreated.

CC104 mutY::cam = test: Survival curves after cisplatin treatment; conditions: presence or absence of chloramphenicol in growth medium
Procedure: as §1, §2

CC104/pBR322 = test: Survival curves after cisplatin treatment; conditions: grown with tetracycline prior to cisplatin treatment
Procedure: (§3) Strains carrying the pBR322 plasmid were created using a standard transformation by electroporation protocol. Briefly, cells were grown to mid-log phase, spun down, and washed 3 times in ice-cold sterile water. Cells were then resuspended in the final volume of 100 μl of ice-cold sterile water, and 10 μg pBR322 (New England BioLabs) was added. The BTX electroporation system, ElectroCell Manipulator 600, was used to deliver the pulse. After the pulse, cells were immediately resuspended in 1 ml of LB broth. Appropriate dilutions of cells were prepared in M9 minimal salts, plated on LB-ampicillin plates, and allowed to form colonies overnight.
as §1, §2

AB1157/pBR322 = test: Survival curves after cisplatin treatment; conditions: grown with tetracycline prior to cisplatin treatment
Procedure: as §3, §1, §2

MG1655/pBR322 = test: Survival curves after cisplatin treatment
Procedure: as §3, §1, §2

AB1157 mutS::tet = test: Survival curves after cisplatin treatment
Procedure: as §1, §2

GM7330 fpg::tet = test: Survival curves after cisplatin treatment
Procedure: as §1, §2

CC104 mutY::tet = test: Survival curves after cisplatin treatment
Procedure: as §1, §2

MG1655/F′Tn10 = test: Survival curves (colony formation) after cisplatin treatment
Procedure: Strain GM4292 was constructed by mating exponentially growing XL1-Blue (Stratagene) with MG1655 (both at 1-2×10^8/ml at a 1:1 ratio) for 60 min and plating dilutions of the mixture on MacConkey agar-tetracycline plates. A red tetracycline-resistant, nalidixic acid-sensitive colony was selected, purified and designated GM4292. Strain GM4293 was constructed by introducing F′42 (F′lac^+) from AB 1874 into KM81 by conjugation as described above and selecting for Lac^+ Str^R colonies. A purified Lac^+ Str^R recombinant overnight culture was diluted and plated on MacConkey agar-kanamycin and following incubation overnight at 37° C., white colonies were selected. White colonies can arise either by gene conversion, where the lac^+ allele on the F′42 plasmid is converted to lacZ::Kan, or by loss of the F′lac^+. The white colonies were tested for their ability to transfer kanamycin-resistance at high frequency to MG1655, indicating retention of the F′ plasmid. One of these MG1655 recipients was designated GM4293.
as §1
as §2, with “At this time, the cells were spun down, resuspended in M9 minimal salts, and treated with various concentrations of cisplatin at 37° C. for 1 hour.” left out

[1] = grown without tetracycline, treated with cisplatin alone
[2] = grown without tetracycline, treated with cisplatin in the presence of tetracycline
[3] = pre-treated and co-treated with tetracycline vs pre-treated only, cisplatin
[4] = tetracycline absent from growth medium

Q: How did the “effect of antibiotic in growth medium on survival upon cisplatin treatment” value (GM7330 fpg::amp) turn out when `CC1(C)S[C@@H]2[C@H](NC(=O)[C@H](N)c3ccccc3)C(=O)N2[C@H]1C(=O)O` [ampicillin] was run?
A: did not produce the same degree of sensitization to cisplatin

Q: How did the “effect of antibiotic in growth medium on survival upon cisplatin treatment” value (CC104 mutY::cam) turn out when `O=C(N[C@H](CO)[C@H](O)c1ccc([N+](=O)[O-])cc1)C(Cl)Cl` [chloramphenicol] was run?
A: did not produce the same degree of sensitization to cisplatin

Q: Which sensitization to cisplatin (CC104/pBR322) does the source give for `N.N.[Cl][Pt][Cl]` [cisplatin, cis-diammine-dichloro-platinum(II)] here?
A: did not produce similar sensitization to cisplatin

Q: What about the sensitization to cisplatin (AB1157/pBR322) of the same compound?
A: did not produce similar sensitization to cisplatin

Q: And the sensitization to cisplatin (MG1655/pBR322; grown with tetracycline prior to cisplatin treatment)?
A: did not produce similar sensitization to cisplatin

Q: And the sensitivity to cisplatin (MG1655/pBR322; [1])?
A: equally sensitive to cisplatin as MG1655 cells not carrying any tet genes

Q: What about the survival (MG1655/pBR322; [2]) of the same compound?
A: their survival decreased

Q: And the “additional decrease in survival” value (MG1655/pBR322; [3])?
A: 100 fold

Q: What about the “survival upon treatment with cisplatin” value (AB1157 mutS::tet; grown with tetracycline) of the same compound?
A: dramatically decreased

Q: And the “survival upon treatment with cisplatin” value (AB1157 mutS::tet; [4])?
A: not different from respective wild-types

Q: What about the “survival upon treatment with cisplatin” value (GM7330 fpg::tet; grown with tetracycline) of the same compound?
A: dramatically decreased

Q: What about the “survival upon treatment with cisplatin” value (GM7330 fpg::tet; [4]) of the same compound?
A: not different from respective wild-types

Q: What about the “survival upon treatment with cisplatin” value (CC104 mutY::tet; grown with tetracycline) of the same compound?
A: dramatically decreased

Q: What about the “survival upon treatment with cisplatin” value (CC104 mutY::tet; [4]) of the same compound?
A: not different from respective wild-types

Q: What about the sensitivity to cisplatin (MG1655/F′Tn10; 4 hours, 10-fold lower cisplatin doses, co-treated with tetracycline only) of the same compound?
A: more sensitive to cisplatin than wild-type

Q: What about the survival (MG1655/F′Tn10; 4 hours, 10-fold lower cisplatin doses, neither pre-treated nor co-treated with tetracycline) of the same compound?
A: not different from survival of wild-type cells

Q: And the sensitivity to cisplatin (MG1655/F′Tn10; 4 hours, 10-fold lower cisplatin doses, pre-treated with tetracycline and co-treated with cisplatin and tetracycline)?
A: the most sensitive to cisplatin treatment

Q: And the sensitivity to cisplatin (MG1655/F′Tn10; 4 hours, 10-fold lower cisplatin doses, pre-treated with tetracycline only)?
A: more sensitive to cisplatin than wild-type

Q: What about the sensitivity to cisplatin (MG1655/F′Tn10; [1]) of the same compound?
A: equally sensitive to cisplatin as MG1655 cells not carrying any tet genes

Q: What about the survival (MG1655/F′Tn10; [2]) of the same compound?
A: their survival decreased

Q: And the “survival upon exposure to cisplatin” value (MG1655/F′Tn10; grown without tetracycline, cisplatin 1 hour)?
A: not different from that of MG1655 wild-type cells

Q: And the “additional decrease in survival” value (MG1655/F′Tn10; [3])?
A: 100 fold

Q: What about the “survival upon subsequent treatment with cisplatin” value (MG1655/F′Tn10; tetracycline 15 μg/ml in growth medium of overnight and log phase cultures, cisplatin 1 hour) of the same compound?
A: dramatic decrease in survival

Q: And the “killed more effectively than wild-type bacteria” value (MG1655/F′Tn10; tetracycline-resistant bacteria grown in tetracycline, then cisplatin in the presence of tetracycline, vs wild-type or resistant bacteria not exposed to tetracycline)?
A: about 10^5 fold
